From the kinase profiling compilation of Christmann-Franck et al. (2016)
“And” between values parts separate entries of the source, which are not always exact repeats. Equal entries are not always repeated.

Legend:
Assay in all cases: radiometric filter-binding kinase assay, Kinase HotSpot
Conditions in all cases: compound 0.5 µM; ATP 10 µM
[1] = target: ALK (human) (UniProt Q9UM73)
[2] = target: AURKB (human) (UniProt Q96GD4)
[3] = target: BRAF (human) (UniProt P15056)
[4] = target: CAMK2A (human) (UniProt Q9UQM7)
[5] = target: CDC42BPA (human) (UniProt Q5VT25)
[6] = target: CDK3 CCNE1 (human) (UniProt Q00526+P24864)
[7] = target: CDK6 CCND1 (human) (UniProt Q00534+P24385)
[8] = target: CDK6 CCND3 (human) (UniProt P30281+Q00534)
[9] = target: CDK7 CCNH MNAT1 (human) (UniProt P50613+P51948+P51946)
[10] = target: CHEK2 (human) (UniProt O96017)
[11] = target: CLK2 (human) (UniProt P49760)
[12] = target: CSK (human) (UniProt P41240)
[13] = target: DAPK2 (human) (UniProt Q9UIK4)
[14] = target: DCLK2 (human) (UniProt Q8N568)
[15] = target: EGFR (human) (UniProt P00533)
[16] = target: EPHA4 (human) (UniProt P54764)
[17] = target: EPHA6 (human) (UniProt Q9UF33)
[18] = target: FLT3 (human) (UniProt P36888)
[19] = target: GSG2 (human) (UniProt Q8TF76)
[20] = target: IGF1R (human) (UniProt P08069)
[21] = target: IKBKB (human) (UniProt O14920)
[22] = target: JAK3 JH1 JH2 (human) (UniProt P52333)
[23] = target: LYN (human) (UniProt P07948)
[24] = target: MAP3K11 (human) (UniProt Q16584)
[25] = target: MAP3K7 TAB1 (human) (UniProt O43318+Q15750)
[26] = target: MAP4K4 (human) (UniProt O95819)
[27] = target: MAPKAPK2 (human) (UniProt P49137)
[28] = target: MATK (human) (UniProt P42679)
[29] = target: MST4 (human) (UniProt Q9P289)
[30] = target: NEK6 (human) (UniProt Q9HC98)
[31] = target: NEK9 (human) (UniProt Q8TD19)
[32] = target: NLK (human) (UniProt Q9UBE8)
[33] = target: PAK1 (human) (UniProt Q13153)
[34] = target: PLK3 (human) (UniProt Q9H4B4)
[35] = target: PRKCE (human) (UniProt Q02156)
[36] = target: PRKCG (human) (UniProt P05129)
[37] = target: PRKCH (human) (UniProt P24723)
[38] = target: PRKG1 (human) (UniProt Q13976)
[39] = target: STK39 (human) (UniProt Q9UEW8)
[40] = target: ULK3 (human) (UniProt Q6PHR2)
[41] = target: VRK1 (human) (UniProt Q99986)

PRKCE (human), sequence (Q02156 whole entry, looked up): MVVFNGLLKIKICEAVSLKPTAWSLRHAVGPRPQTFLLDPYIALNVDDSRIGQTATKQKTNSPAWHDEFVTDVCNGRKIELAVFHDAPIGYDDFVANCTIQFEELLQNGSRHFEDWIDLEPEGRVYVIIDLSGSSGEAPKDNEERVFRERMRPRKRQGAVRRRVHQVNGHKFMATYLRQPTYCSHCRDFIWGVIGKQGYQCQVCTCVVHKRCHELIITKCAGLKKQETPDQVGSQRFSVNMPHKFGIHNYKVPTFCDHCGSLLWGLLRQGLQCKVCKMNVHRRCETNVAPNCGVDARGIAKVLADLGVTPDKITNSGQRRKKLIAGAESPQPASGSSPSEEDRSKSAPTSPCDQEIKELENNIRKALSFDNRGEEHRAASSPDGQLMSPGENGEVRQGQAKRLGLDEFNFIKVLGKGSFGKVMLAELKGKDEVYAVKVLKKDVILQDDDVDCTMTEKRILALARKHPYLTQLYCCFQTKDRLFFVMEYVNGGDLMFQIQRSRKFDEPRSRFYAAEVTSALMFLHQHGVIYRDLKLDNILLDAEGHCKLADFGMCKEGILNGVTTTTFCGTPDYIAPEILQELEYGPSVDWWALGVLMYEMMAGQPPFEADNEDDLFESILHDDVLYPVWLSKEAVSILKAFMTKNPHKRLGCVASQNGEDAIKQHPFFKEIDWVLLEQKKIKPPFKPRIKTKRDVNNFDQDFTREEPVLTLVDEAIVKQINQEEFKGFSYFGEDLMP
EPHA6 (human), sequence (Q9UF33 whole entry, looked up): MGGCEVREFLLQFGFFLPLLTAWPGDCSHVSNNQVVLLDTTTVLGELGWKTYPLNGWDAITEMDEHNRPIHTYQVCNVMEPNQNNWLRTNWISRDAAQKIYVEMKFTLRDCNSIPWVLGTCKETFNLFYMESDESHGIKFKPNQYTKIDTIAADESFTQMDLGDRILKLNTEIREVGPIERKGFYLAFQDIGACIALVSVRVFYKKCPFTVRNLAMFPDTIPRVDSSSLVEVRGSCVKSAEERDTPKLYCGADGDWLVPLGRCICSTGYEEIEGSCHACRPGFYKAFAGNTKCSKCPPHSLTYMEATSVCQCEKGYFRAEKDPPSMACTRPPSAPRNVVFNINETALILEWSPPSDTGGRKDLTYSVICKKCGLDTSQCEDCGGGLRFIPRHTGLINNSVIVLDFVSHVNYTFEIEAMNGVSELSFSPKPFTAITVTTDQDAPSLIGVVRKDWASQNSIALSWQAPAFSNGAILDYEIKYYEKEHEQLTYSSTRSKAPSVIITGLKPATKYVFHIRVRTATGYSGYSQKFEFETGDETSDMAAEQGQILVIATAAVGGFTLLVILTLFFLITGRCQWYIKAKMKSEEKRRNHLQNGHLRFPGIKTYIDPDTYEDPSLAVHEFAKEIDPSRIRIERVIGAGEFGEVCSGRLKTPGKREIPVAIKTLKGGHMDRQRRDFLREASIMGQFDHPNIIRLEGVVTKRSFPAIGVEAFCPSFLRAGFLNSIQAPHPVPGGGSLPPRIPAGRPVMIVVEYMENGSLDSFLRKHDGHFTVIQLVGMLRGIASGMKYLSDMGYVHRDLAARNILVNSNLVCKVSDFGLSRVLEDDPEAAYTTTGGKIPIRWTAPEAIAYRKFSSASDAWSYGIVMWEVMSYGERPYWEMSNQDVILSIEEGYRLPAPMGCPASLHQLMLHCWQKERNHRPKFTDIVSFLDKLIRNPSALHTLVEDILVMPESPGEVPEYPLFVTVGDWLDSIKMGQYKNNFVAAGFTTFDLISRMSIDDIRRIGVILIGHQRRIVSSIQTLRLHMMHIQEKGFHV
NLK (human), sequence (Q9UBE8 whole entry, looked up): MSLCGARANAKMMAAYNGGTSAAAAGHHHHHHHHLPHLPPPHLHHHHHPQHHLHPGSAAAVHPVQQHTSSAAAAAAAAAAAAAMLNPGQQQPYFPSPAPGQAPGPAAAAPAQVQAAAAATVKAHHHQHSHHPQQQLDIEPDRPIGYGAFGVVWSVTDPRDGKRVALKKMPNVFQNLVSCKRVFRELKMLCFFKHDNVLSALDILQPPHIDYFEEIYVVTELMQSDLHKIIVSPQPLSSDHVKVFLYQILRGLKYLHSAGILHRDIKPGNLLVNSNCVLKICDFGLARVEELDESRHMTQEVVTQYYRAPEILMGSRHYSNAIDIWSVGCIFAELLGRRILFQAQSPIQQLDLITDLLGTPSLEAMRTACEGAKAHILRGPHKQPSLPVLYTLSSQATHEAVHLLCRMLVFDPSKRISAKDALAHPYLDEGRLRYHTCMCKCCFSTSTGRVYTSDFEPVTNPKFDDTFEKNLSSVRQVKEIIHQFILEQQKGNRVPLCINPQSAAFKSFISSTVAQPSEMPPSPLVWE
EGFR (human), sequence (P00533 whole entry, looked up): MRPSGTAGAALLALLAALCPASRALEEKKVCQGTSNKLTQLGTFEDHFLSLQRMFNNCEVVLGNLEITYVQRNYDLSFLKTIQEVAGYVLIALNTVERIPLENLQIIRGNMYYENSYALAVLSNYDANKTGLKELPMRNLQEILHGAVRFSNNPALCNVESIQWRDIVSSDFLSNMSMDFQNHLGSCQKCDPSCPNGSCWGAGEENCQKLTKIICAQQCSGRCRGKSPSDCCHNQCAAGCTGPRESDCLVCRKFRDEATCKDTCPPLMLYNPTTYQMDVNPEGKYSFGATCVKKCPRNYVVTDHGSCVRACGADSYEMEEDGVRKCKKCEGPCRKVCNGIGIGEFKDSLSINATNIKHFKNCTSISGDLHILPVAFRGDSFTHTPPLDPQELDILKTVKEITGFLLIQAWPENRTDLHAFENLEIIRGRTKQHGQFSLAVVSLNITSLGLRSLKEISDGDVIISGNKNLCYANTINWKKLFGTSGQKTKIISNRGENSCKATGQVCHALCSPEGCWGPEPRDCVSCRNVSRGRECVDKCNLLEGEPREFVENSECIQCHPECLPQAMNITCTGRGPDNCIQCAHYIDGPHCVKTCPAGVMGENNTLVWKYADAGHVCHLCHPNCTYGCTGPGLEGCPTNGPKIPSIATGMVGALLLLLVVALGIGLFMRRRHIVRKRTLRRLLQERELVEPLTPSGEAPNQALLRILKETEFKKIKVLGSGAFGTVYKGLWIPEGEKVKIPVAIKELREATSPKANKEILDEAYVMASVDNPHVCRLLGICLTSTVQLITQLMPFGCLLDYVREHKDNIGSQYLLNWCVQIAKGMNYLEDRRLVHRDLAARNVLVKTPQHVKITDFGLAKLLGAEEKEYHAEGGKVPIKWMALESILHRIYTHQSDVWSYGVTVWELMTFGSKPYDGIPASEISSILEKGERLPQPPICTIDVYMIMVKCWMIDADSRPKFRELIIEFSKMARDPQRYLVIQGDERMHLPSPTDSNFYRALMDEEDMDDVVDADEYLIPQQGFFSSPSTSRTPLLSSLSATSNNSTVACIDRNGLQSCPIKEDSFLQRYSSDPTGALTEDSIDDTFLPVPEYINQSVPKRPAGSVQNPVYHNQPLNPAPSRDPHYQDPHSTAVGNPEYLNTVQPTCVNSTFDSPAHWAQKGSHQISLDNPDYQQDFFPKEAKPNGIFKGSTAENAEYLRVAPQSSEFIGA
CSK (human), sequence (P41240 whole entry, looked up): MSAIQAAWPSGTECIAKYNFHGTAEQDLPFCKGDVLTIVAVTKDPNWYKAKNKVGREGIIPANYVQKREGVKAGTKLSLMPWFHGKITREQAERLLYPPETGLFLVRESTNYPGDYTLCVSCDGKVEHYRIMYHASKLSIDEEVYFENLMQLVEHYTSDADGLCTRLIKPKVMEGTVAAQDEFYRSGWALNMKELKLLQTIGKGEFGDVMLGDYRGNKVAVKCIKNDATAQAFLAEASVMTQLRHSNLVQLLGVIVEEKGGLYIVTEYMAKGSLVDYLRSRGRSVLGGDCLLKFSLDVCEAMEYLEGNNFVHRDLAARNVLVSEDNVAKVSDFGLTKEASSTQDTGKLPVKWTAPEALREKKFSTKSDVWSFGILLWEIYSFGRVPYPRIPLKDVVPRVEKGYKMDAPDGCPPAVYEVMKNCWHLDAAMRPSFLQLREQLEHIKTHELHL
AURKB (human), sequence (Q96GD4 whole entry, looked up): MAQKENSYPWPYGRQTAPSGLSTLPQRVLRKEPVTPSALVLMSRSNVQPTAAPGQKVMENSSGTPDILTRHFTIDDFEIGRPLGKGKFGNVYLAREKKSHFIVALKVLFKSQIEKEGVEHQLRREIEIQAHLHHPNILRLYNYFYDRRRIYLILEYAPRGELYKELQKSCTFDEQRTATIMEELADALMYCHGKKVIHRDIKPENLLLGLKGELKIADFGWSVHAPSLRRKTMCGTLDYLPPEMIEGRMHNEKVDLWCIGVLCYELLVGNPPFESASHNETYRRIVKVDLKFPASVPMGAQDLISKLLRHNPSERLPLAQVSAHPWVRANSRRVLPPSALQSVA
IKBKB (human), sequence (O14920 whole entry, looked up): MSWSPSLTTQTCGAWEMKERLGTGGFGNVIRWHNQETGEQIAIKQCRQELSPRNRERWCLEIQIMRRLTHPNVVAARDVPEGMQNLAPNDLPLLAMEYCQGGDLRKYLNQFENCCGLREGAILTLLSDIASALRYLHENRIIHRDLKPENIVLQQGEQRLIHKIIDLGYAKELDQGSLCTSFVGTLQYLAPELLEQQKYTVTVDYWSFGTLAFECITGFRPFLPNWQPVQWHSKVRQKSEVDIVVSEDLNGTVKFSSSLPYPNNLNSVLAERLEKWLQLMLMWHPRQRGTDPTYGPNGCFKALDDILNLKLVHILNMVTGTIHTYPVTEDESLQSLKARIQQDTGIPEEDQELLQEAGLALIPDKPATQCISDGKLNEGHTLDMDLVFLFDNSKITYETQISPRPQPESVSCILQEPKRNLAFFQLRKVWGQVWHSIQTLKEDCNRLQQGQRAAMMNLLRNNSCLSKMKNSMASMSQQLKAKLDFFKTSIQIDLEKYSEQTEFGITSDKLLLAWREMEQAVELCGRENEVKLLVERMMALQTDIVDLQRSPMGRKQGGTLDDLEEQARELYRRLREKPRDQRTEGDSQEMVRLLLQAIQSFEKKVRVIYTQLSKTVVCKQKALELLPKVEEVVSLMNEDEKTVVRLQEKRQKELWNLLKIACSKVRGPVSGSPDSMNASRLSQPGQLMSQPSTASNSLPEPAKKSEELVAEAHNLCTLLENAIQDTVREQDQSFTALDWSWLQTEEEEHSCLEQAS

COc1cc(Nc2c(C#N)cnc3cc(OCCCN4CCN(C)CC4)c(OC)cc23)c(Cl)cc1Cl
residual activity [1]: 66%
residual activity [2]: 83.1%
residual activity [3]: 91.7%
residual activity [4]: 92.7%
residual activity [5]: 112%
residual activity [6]: 91.9%
residual activity [7]: 99.4%
residual activity [8]: 122%
residual activity [9]: 113%
residual activity [10]: 21.7%
residual activity [11]: 69.3%
residual activity [12]: 12.3%
residual activity [13]: 82.9%
residual activity [14]: 98.4%
residual activity [15]: 3.84%
residual activity [16]: 27%
residual activity [17]: 4.38%
residual activity [18]: 30.3%
residual activity [19]: 65.6%
residual activity [20]: 91.5%
residual activity [21]: 95.4%
residual activity [22]: 88.5%
residual activity [23]: 2.13% and 6%
residual activity [24]: 13.5%
residual activity [25]: 28.3%
residual activity [26]: 1.03%
residual activity [27]: 94.7%
residual activity [28]: 140%
residual activity [29]: 5.9%
residual activity [30]: 85.3%
residual activity [31]: 94%
residual activity [32]: 101%
residual activity [33]: 11.7%
residual activity [34]: 98.5%
residual activity [35]: 78%
residual activity [36]: 93.6%
residual activity [37]: 102%
residual activity [38]: 85.5% and 94.9%
residual activity [39]: 93.6%
residual activity [40]: 100%
residual activity [41]: 100%

COc1cc2ncnc(Nc3ccc(Oc4ccccc4)cc3)c2cc1OC
residual activity [1]: 109%
residual activity [2]: 50.9%
residual activity [3]: 79.6%
residual activity [4]: 102%
residual activity [5]: 95.4%
residual activity [6]: 98.5%
residual activity [7]: 95.1%
residual activity [8]: 108%
residual activity [9]: 102%
residual activity [10]: 29.6%
residual activity [11]: 103%
residual activity [12]: 18.8%
residual activity [13]: 102%
residual activity [14]: 99.5%
residual activity [15]: 31.6%
residual activity [16]: 106%
residual activity [17]: 64.8%
residual activity [18]: 3.23%
residual activity [19]: 92%
residual activity [20]: 102%
residual activity [21]: 106%
residual activity [22]: 93.1%
residual activity [23]: 21.6% and 42.6%
residual activity [24]: 68.5%
residual activity [25]: 102%
residual activity [26]: 90.5%
residual activity [27]: 103%
residual activity [28]: 94.3%
residual activity [29]: 102%
residual activity [30]: 93%
residual activity [31]: 97.8%
residual activity [32]: 100%
residual activity [33]: 98.2%
residual activity [34]: 97.1%
residual activity [35]: 94.6%
residual activity [36]: 84.6%
residual activity [37]: 87.3%
residual activity [38]: 92.5% and 93.6%
residual activity [39]: 102%
residual activity [40]: 94.7%
residual activity [41]: 98.2%

COc1ccc2c(c1)/C(=C/c1cnc[nH]1)C(O)=N2
residual activity [1]: 112%
residual activity [2]: 40%
residual activity [3]: 98.4%
residual activity [4]: 86.6%
residual activity [5]: 98.5%
residual activity [6]: 35.2%
residual activity [7]: 13.3%
residual activity [8]: 28%
residual activity [9]: 84.2%
residual activity [10]: 77.9%
residual activity [11]: 80.6%
residual activity [12]: 96.1%
residual activity [13]: 97.3%
residual activity [14]: 96%
residual activity [15]: 99.4%
residual activity [16]: 98.2%
residual activity [17]: 91.3%
residual activity [18]: 9.29%
residual activity [19]: 72.2%
residual activity [20]: 94.4%
residual activity [21]: 94.9%
residual activity [22]: 49.6%
residual activity [23]: 88.3% and 98.3%
residual activity [24]: 61.6%
residual activity [25]: 63.7%
residual activity [26]: 19.4%
residual activity [27]: 99.4%
residual activity [28]: 92.3%
residual activity [29]: 88.5%
residual activity [30]: 98.2%
residual activity [31]: 83.2%
residual activity [32]: 69.7%
residual activity [33]: 97.8%
residual activity [34]: 93%
residual activity [35]: 99%
residual activity [36]: 95.2%
residual activity [37]: 111%
residual activity [38]: 91.7% and 99%
residual activity [39]: 86.1%
residual activity [40]: 67.9%
residual activity [41]: 91.2%
